The results in this text go back to PubChem BioAssay AID504472 (NMMLSC, 2011).

Each structure is given as a SMILES string. Calls of active or inactive are those of the source.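 How the source made its calls: active means compound moving the GFP-tagged Gln3 signal into the yeast nucleus, as rapamycin does; inactive means the rest.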

The subject of the experiment is S. cerevisiae Gln3-GFP nuclear translocation, microscopy. As to the kind of experiment: Gln3-GFP nuclear translocation in yeast, SAR follow-up, yeast TOR pathway modulator project, S. cerevisiae, GFP fusion, microscopy (AID 504472). Particulars: at 30 µM; stronger effect = higher value.
As for `CNc1nc(N)c([N+](=O)[O-])c(Nc2cccc(Cl)c2)n1`, the nuclear translocation (1=yes) is 0 (inactive).

Turning to `CNc1nc(N)c([N+](=O)[O-])c(Nc2ccccc2)n1`, the nuclear translocation (1=yes) was 0 (inactive).

With `CO[C@H]1C[C@@H]2CC[C@@H](C)[C@@](O)(O2)C(=O)C(=O)N2CCCC[C@H]2C(=O)O[C@H]([C@H](C)C[C@@H]2CC[C@@H](O)[C@H](OC)C2)CC(=O)[C@H](C)/C=C(\C)[C@@H](O)[C@@H](OC)C(=O)[C@H](C)C[C@H](C)/C=C/C=C/C=C/1C`, the nuclear translocation (1=yes) was 1.

Consider `CNc1nc(N)c([N+](=O)[O-])c(Nc2cccc(F)c2)n1`, for which the nuclear translocation (1=yes) is 0 (inactive).
